Where a name gives a salt, the structure may show the parent alone.
These compounds were tested against DPP9 (Homo sapiens (Human), UniProt Q86TI2) (assay: DPP9 enzyme inhibition, IC50 measurement (Ala-Pro-pNA release)). Conditions: not given.
Assay type: biochemical
Procedure: DPP4 was purified from human seminal plasma as described previously.^[3]
IC50 measurements. […] The Magellan software was used to process the data, which was then fitted using a non-linear fit model in GraFit 7. […] As a blank, the assay buffer was used instead of the enzyme. Screening measurements were carried out in duplo and IC50 values were determined in triplo with at least eight different inhibitor concentrations as described by Van Goethem et al.

Chain of DPP9 (Q86TI2 whole entry): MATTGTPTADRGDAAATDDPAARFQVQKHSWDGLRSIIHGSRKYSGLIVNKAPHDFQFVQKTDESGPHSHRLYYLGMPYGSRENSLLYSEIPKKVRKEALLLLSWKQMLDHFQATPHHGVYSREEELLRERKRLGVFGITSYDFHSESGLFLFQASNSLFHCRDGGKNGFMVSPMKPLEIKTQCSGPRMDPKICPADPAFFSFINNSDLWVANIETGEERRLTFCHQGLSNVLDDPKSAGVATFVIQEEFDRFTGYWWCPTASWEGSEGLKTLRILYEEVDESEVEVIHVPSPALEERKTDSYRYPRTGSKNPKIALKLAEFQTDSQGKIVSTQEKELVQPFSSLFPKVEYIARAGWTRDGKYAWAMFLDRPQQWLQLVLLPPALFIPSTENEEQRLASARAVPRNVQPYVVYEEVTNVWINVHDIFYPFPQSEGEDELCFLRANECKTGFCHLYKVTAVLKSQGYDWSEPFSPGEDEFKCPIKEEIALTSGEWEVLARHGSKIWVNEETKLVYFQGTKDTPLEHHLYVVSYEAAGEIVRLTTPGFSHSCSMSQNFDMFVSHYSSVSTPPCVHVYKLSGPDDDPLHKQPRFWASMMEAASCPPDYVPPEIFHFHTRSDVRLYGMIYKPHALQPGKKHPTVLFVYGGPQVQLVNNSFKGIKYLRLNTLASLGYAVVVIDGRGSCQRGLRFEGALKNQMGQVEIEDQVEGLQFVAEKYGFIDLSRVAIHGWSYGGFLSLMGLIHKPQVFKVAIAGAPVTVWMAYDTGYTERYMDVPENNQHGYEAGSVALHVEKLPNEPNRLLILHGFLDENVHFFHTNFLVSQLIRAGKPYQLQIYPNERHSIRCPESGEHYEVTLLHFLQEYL

`N#C[C@@H]1[C@@H]2C[C@@H]2CN1C(=O)CNC12CC3CC(CC(O)(C3)C1)C2` [Compound 5l, (1R,2S,5S)-3-((3-hydroxyadamantan-1-yl)glycyl)-3-azabicyclo[3.1.0]hexane-2-carbonitrile] showed a DPP9/8 selectivity index of over 10.

Same assay, conditions: Table 3; mean ± SD (n = 3); read-out: DPP9 IC50 ± SD

In the case of `CCCCNC12CC3CC(C1)CC(NCC(=O)N1Cc4ccccc4C1)(C3)C2` [Compound 25, 2-((3-(butylamino)adamantan-1-yl)amino)-1-(isoindolin-2-yl)ethan-1-one 2,2,2-trifluoroacetate], the IC50 is reported as 477 ± 28 nM.

Same assay, conditions: Table 3; selectivity index, DPP8 IC50 over DPP9 IC50

`CCCCNC12CC3CC(C1)CC(NCC(=O)N1Cc4ccccc4C1)(C3)C2` [Compound 25, 2-((3-(butylamino)adamantan-1-yl)amino)-1-(isoindolin-2-yl)ethan-1-one 2,2,2-trifluoroacetate] was tested, and the “SI DPP9/8” value was over 21.

Same assay, conditions: Table 4; selectivity index

First: Cl.O=C(NC12CC3CC(CC(NCC(=O)N4Cc5ccc(F)cc5C4)(C3)C1)C2)c1ccc(-c2ccccc2)cc1 [Compound 87, N-((1s,3r,5R,7S)-3-((2-(5-fluoroisoindolin-2-yl)-2-oxoethyl)amino)adamantan-1-yl)-[1,1′-biphenyl]-4-carboxamide hydrochloride]
Second: Cl.O=C(NC12CC3CC(CC(NCC(=O)N4Cc5ccc(F)cc5C4)(C3)C1)C2)c1cccc(-c2ccccc2)c1 [Compound 101, N-((1s,3r,5R,7S)-3-((2-(5-fluoroisoindolin-2-yl)-2-oxoethyl)amino)adamantan-1-yl)-[1,1′-biphenyl]-3-carboxamide hydrochloride]
The “SI DPP9/DPP8” value of the first is higher: 54 for the first, 4 for the second.

First: Cl.O=C(NC12CC3CC(CC(NCC(=O)N4Cc5ccc(F)cc5C4)(C3)C1)C2)c1ccc(-c2ccccc2)nc1 [Compound 89, N-((1s,3r,5R,7S)-3-((2-(5-fluoroisoindolin-2-yl)-2-oxoethyl)amino)adamantan-1-yl)-6-phenylnicotinamide hydrochloride]
Second: O=C(CNC12CC3CC(C1)CC(Nc1ccc(-c4ccccc4)nc1)(C3)C2)N1Cc2ccc(F)cc2C1 [Compound 109, 1-(5-fluoroisoindolin-2-yl)-2-((-3-((6-phenylpyridin-3-yl)amino)adamantan-1-yl)amino)ethan-1-one dihydrochloride]
The “SI DPP9/DPP8” value of the first is higher: 28 for the first, 2 for the second.

First: Cl.O=C(NC12CC3CC(CC(NCC(=O)N4Cc5ccc(F)cc5C4)(C3)C1)C2)c1ccc(-c2cccs2)cc1 [Compound 92, N-((1s,3r,5R,7S)-3-((2-(5-fluoroisoindolin-2-yl)-2-oxoethyl)amino)adamantan-1-yl)-4-(thiophen-2-yl)benzamide hydrochloride]
Second: Cl.O=C(NC12CC3CC(CC(NCC(=O)N4Cc5ccc(F)cc5C4)(C3)C1)C2)c1ccc(-c2cccs2)nc1 [Compound 100, N-((1s,3r,5R,7S)-3-((2-(5-fluoroisoindolin-2-yl)-2-oxoethyl)amino)adamantan-1-yl)-6-(thiophen-2-yl)nicotinamide hydrochloride]
The “SI DPP9/DPP8” value of the first is higher: 27 for the first, 22 for the second.

Compared with `Cl.O=C(NC12CC3CC(CC(NCC(=O)N4Cc5ccc(F)cc5C4)(C3)C1)C2)c1ccc(-c2ccc(F)cc2)cc1` [Compound 93, 4′-fluoro-N-((1s,3r,5R,7S)-3-((2-(5-fluoroisoindolin-2-yl)-2-oxoethyl)amino)adamantan-1-yl)-[1,1′-biphenyl]-4-carboxamide hydrochloride], `Cl.O=C(NC12CC3CC(CC(NCC(=O)N4Cc5ccc(F)cc5C4)(C3)C1)C2)c1ccc(-c2ccc(O)cc2)cc1` [Compound 105, N-(-3-((2-(5-fluoroisoindolin-2-yl)-2-oxoethyl)amino)adamantan-1-yl)-4′-hydroxy-[1,1′-biphenyl]-4-carboxamide hydrochloride] is lower in “SI DPP9/DPP8” value: 59 for the first, 27 for the second.

Going from `Cl.O=C(NC12CC3CC(CC(NCC(=O)N4Cc5ccc(F)cc5C4)(C3)C1)C2)c1ccc(-c2ccccc2F)cc1` [Compound 94, 2′-fluoro-N-((1s,3r,5R,7S)-3-((2-(5-fluoroisoindolin-2-yl)-2-oxoethyl)amino)adamantan-1-yl)-[1,1′-biphenyl]-4-carboxamide hydrochloride] to `COC(=O)c1ccc(-c2ccc(C(=O)NC34CC5CC(CC(NCC(=O)N6Cc7ccc(F)cc7C6)(C5)C3)C4)cc2)cc1` [Compound 104, Methyl 4′-((-3-((2-(5-fluoroisoindolin-2-yl)-2-oxoethyl)amino)adamantan-1-yl)carbamoyl)-[1,1′-biphenyl]-4-carboxylate hydrochloride], the “SI DPP9/DPP8” value rises from 26 to 46.

Going from `Cl.N#Cc1ccc(C(=O)NC23CC4CC(CC(NCC(=O)N5Cc6ccc(F)cc6C5)(C4)C2)C3)cc1` [Compound 96, 4-cyano-N-((1s,3r,5R,7S)-3-((2-(5-fluoroisoindolin-2-yl)-2-oxoethyl)amino)adamantan-1-yl)benzamide hydrochloride] to `Cl.O=C(NC12CC3CC(CC(NCC(=O)N4Cc5ccc(F)cc5C4)(C3)C1)C2)c1cnc2ccccc2c1` [Compound 99, N-((1s,3r,5R,7S)-3-((2-(5-fluoroisoindolin-2-yl)-2-oxoethyl)amino)adamantan-1-yl)quinoline-3-carboxamide hydrochloride], the “SI DPP9/DPP8” value rises from 12 to 13.

Compared with `Cl.O=C(NC12CC3CC(CC(NCC(=O)N4Cc5ccc(F)cc5C4)(C3)C1)C2)c1ccc(-c2ccccc2)s1` [Compound 97, N-((1s,3r,5R,7S)-3-((2-(5-fluoroisoindolin-2-yl)-2-oxoethyl)amino)adamantan-1-yl)-5-phenylthiophene-2-carboxamide hydrochloride], `Cl.O=C(CNC12CC3CC(C1)CC(NS(=O)(=O)c1ccc(-c4ccccc4)cc1)(C3)C2)N1Cc2ccc(F)cc2C1` [Compound 102, N-((1s,3r,5R,7S)-3-((2-(5-fluoroisoindolin-2-yl)-2-oxoethyl)amino)adamantan-1-yl)-[1,1′-biphenyl]-4-sulfonamide hydrochloride] is lower in “SI DPP9/DPP8” value: 11 for the first, 4 for the second.

Going from `COC(=O)c1csc(-c2ccc(C(=O)NC34CC5CC(CC(NCC(=O)N6Cc7ccc(F)cc7C6)(C5)C3)C4)cc2)c1.Cl` [Compound 103, Methyl 5-(4-((-3-((2-(5-fluoroisoindolin-2-yl)-2-oxoethyl)amino)adamantan-1-yl)carbamoyl)phenyl)thiophene-3-carboxylate hydrochloride] to `CC[N+]1=C(/C=C/C=C2/N(CCCCCC(=O)NC34CC5CC(CC(NCC(=O)N6Cc7ccc(F)cc7C6)(C5)C3)C4)c3ccc(S(=O)(=O)O)cc3C2(C)C)C(C)(C)c2cc(S(=O)(=O)[O-])ccc21` [Compound 120, 1-ethyl-2-((E)-3-((E)-1-(6-((-3-((2-(5-fluoroisoindolin-2-yl)-2-oxoethyl)amino)adamantan-1-yl)amino)-6-oxohexyl)-3,3-dimethyl-5-sulfoindolin-2-ylidene)prop-1-en-1-yl)-3,3-dimethyl-3H-indol-1-ium-5-sulfonate], the “SI DPP9/DPP8” value falls from 25 to 21.

In the case of `O=C(CCCCC1SCC2NC(=O)NC21)NCCOCCOCCOCCNC(=O)NC12CC3CC(CC(NCC(=O)N4Cc5cc(F)c(F)cc5C4)(C3)C1)C2` (stereo not drawn) [Compound 115, N-(1-((3-((2-(5,6-difluoroisoindolin-2-yl)-2-oxoethyl)amino)adamantan-1-yl)amino)-1-oxo-5,8,11-trioxa-2-azatridecan-13-yl)-5-(2-oxohexahydro-1H thieno[3,4-d]imidazol-4-yl)pentanamide], the “SI DPP9/DPP8” value is reported as 7.

Same assay, conditions: read-out: IC50 DPP9

`COC(=O)c1ccc(-c2ccc(C(=O)NC34CC5CC(CC(NCC(=O)N6Cc7ccc(F)cc7C6)(C5)C3)C4)cc2)cc1` [Compound 104, Methyl 4′-((-3-((2-(5-fluoroisoindolin-2-yl)-2-oxoethyl)amino)adamantan-1-yl)carbamoyl)-[1,1′-biphenyl]-4-carboxylate hydrochloride] gave an IC50 of 1 nM.
